Residues, ends and D or L forms follow the SMILES beside them.
How the values were obtained:
Format in all cases: biochemical, Streptomyces sp. NRRL S-515
PnaB = PnaB ligation reactions (31P NMR, LC-HRMS); details: for conversion of dipeptide with PnAla into phosphonoalamide: role: substrate, dipeptide 3 mM, with PnAla 1 mM and ATP 3 mM, pH 9, 30° C
Description: (§1) These hypotheses were tested by overproducing and purifying recombinant PnaB and PnaC from E. coli for use in a series of biochemical assays. PnAla, Ala, and ATP were incubated with PnaB or PnaC and the reactions were monitored by ^31P NMR and LC-HRMS. […] To determine if either enzyme could convert Ala-Val into phosphonoalamide A, protein was removed from the PnaC reaction by ultrafiltration and Ala, ATP, and fresh PnaC or PnaB was added to the filtrate. LC-HRMS identified PnAla-Ala-Val as a product following the addition of PnaB, but not PnaC (FIG. 25A-FIG. 25C).
Biochemical assays of His6-PnaB. Typical reaction mixtures ([…]) contained 10 μM His6-PnaB, 3 mM ATP, 1 mM L-PnAla, 3 mM chemically synthesized L-Ala-L-Val, L-Val-L-Val, L-Ala-L-Ile, or L-Thr-L-Val in 50 mM Tris-HCl, 100 mM NaCl, 2 mM MgCl2 pH 9. Reactions were incubated at 30° C. for 2 hours, heat inactivated at 65° C. for 10 minutes, and then analyzed by NMR and LC-MS as described above.

PnaC = PnaC dipeptide ligation reactions (LC-HRMS); details: for nucleophiles accepted upon activation of the carboxylate: role: substrate (activated carboxylate); for acceptance as carboxylate: role: substrate (carboxylate), 30° C, 16 hours
Description: as §1
The ATP-Grasp ligases PnaC and PnaB underlie diversification of L-PnAla-containing oligopeptides. To understand the biochemical nature of this potential phosphonopeptide diversity, the substrate specificity of the dipeptide ligase PnaC was first delineated. Microscale biochemical reactions containing purified PnaC were performed with every combination of the 20 canonical amino acids and L-allo-threonine (231 total pairs of substrates). Reactions were analyzed by LC-HRMS to reveal putative dipeptides from 146 out of the 231 combinations. To distinguish residues in reactions containing isomeric pairs (e.g., Ile and Leu, Thr and allo-Thr) new reactions were prepared using ^15N-Ile and 4-^13C-2,3-D2-Thr as substrates. LC-HRMS/MS fragmentation analysis was then performed to verify all products and determine structures.
Biochemical assays of His6-PnaC. Typical reaction mixtures ([…]) contained 10 μM His6-PnaC, […], 3 mM of each L-amino acid, and 5 mM ATP in 50 mM Tris-HCl, 100 mM NaCl, 2 mM MgCl2 pH 9. Reactions were incubated at 30° C. for 16 hours, heat inactivated at 65° C. for 10 minutes, and then analyzed by LC-MS as described above.
(§2) Analysis of PnaC and PnaB substrate specificity reactions. An extracted ion chromatogram (EIC) was obtained for each potential product m z. The shape and retention time of each EIC were used to evaluate the quality and plausibility of true signals, and samples with low-confidence EICs were re-analyzed individually, to address the challenges of ion suppression (FIG. 31A-FIG. 31C) and background noise (FIG. 32A-FIG. 32D).

PnaB and PnaC = experiment: One-pot tripeptide synthesis using PnaB and PnaC; details: for abundance of PnAla conjugate: role: substrate (dipeptide), with PnAla 1 mM and ATP 5 mM, one-pot with PnaC
Source text: Having established the diversity of dipeptides produced by PnaC, the reaction specificity of PnaB was probed. PnaC was used to generate substrates for the ligation of PnAla by PnaB. Microscale reactions contained PnaB, PnaC, PnAla, and all pairs of amino acids shown to form dipeptides. LC-HRMS and fragmentation analysis was then used to identify and verify PnAla-containing tripeptides from these 80 reactions (FIG. 4B, Table 4, Table 5). Altogether, the combined enzyme system produced 97 distinct PnAla-tripeptides, 93 of which had not been previously isolated (FIG. 29 & FIG. 30).
Tripeptide synthesis assays using PnaB and PnaC. Reaction mixtures ([…]) contained 10 μM His6-PnaB, 10 μM His6-PnaC, 1 mM L-PnAla, 3 mM L-amino acid A, 3 mM L-amino acid B, and 5 mM ATP in 50 mM Tris-HCl, 100 mM NaCl, 2 mM MgCl2 pH 9. Reactions were incubated at 30° C. for 16 hours, heat inactivated at 65° C. for 10 minutes, and then analyzed by NMR and LC-MS as described above.
as §2

PnaA with PnaD = experiment: PnaD-PnaA coupled forward reaction, 31P NMR (PEP to PnAla)
Description: Biochemical assays of His6-SUMO-PnaA with His6-PnaD. Typical reaction mixtures (300 μL) contained 20 μM His6-PnaD, 20 μM His6-SUMO-PnaA, 1.5 mM PEP, 3 mM L-Asp, 100 μM pyridoxal 5′-phosphate (PLP), and 2 mM MgCl2 in 50 mM HEPES, 150 mM NaCl, pH 7.5. Reactions were incubated at 30° C. for 2 hours, heat inactivated at 65° C. for 10 minutes, and then analyzed by ^31P NMR and LC-MS as described above.
Reactions in timecourse experiments ([…]) contained 10 μM His6-PnaD, 10 μM His6-SUMO-PnaA, 1.5 mM PEP, 10 mM L-Asp, 100 μM pyridoxal 5′-phosphate (PLP), and 2 mM MgCl2 in 50 mM HEPES, 150 mM NaCl, pH 7.5. Samples were where heat inactivated 1, 5, 10, 30, 60, 120, and 240 min after initiation and then analyzed by ^31P NMR as described above.
Reactions examining the effect of amino donor concentrations were the same as above, except they contained 1.5, 3, 5, or 10 mM of (L-Asp). Samples were heat inactivated after 120 min and then analyzed by ^31P NMR as described above.

PnaD and PnaA = experiment: Coupled PnaD-PnaA kinetics: PEP conversion to L-PnAla, coupled to MDH/NADH oxidation; details: second substrate L-Asp 5 mM
Source text: Apparent steady state parameters were also derived for the conversion of PEP to L-PnAla in reactions with equimolar amounts of PnaD and PnaA (FIG. 20A-FIG. 20B). […] The lower activity in the two-enzyme system is consistent with the slower rate of L-PnAla accumulation observed in the time course experiments (FIG. 16), reflects the unfavourability of PnPy formation [B30], and supports the general hypothesis that PepM activity is the limiting step in Pn biosynthetic pathways.
Kinetic analyses. All reactions (400 μL) were performed in 50 mM HEPES, 150 mM NaCl, pH 7.5, 30° C. using an Agilent Cary 300 spectrophotometer. The instrument was first blanked using the reaction containing the enzymes and the fixed substrate (without NADH). Initial rates were calculated from continual changes in absorbance (340 nm) before and after substrate addition. Data were analyzed using SigmaPlot 15.
Conversion of PEP and L-Asp to L-PnAla and OAA by His6-SUMO-PnaA and His6-PnaD. Each reaction contained 1 μM PnaA, 5 μM PnaD, 5 μM MDH, 200 uM NADH, 2 mM MgCl2, 5 mM L-Asp, and were initiated by the addition of 0.1, 0.2, 0.35, 0.5, 0.65, 0.8, or 1 mM PEP. PnaA was pre-incubated with PLP (1:5) on ice for 10 min prior to use.

PnaA = PnaA reverse transamination reaction, 31P NMR/LC-MS (PnAla to PnPy); details: role: cofactor; additional PLP provided, with PnAla and OAA
Description: Biochemical assays of His6-SUMO-PnaA. Typical reaction mixtures (300 μL) contained 20 μM His6-SUMO-PnaA, 1.5 mM L-PnAla, 3 mM oxaloacetate, and 100 μM pyridoxal 5′-phosphate (PLP) in 50 mM HEPES, 150 mM NaCl, pH 7.5. Reactions were incubated at 30° C. for 2 hours, heat inactivated at 65° C. for 10 minutes, and then analyzed by NMR and LC-MS as described above.
Reactions in time course experiments (150 μL) contained 10 μM His6-SUMO-PnaA, 1.5 mM L-PnAla, 10 mM oxaloacetate (OAA), and 100 μM pyridoxal 5′-phosphate (PLP) in 50 mM HEPES, 150 mM NaCl, pH7.5. Samples were where heat inactivated 1, 5, 10, 30, 60, 120, and 240 min after initiation and then analyzed by ^31P NMR as described above.
Reactions examining the effect of keto-acid acceptor concentrations were the same as above, except they contained 1.5, 3, 5, or 10 mM of (OAA). Samples were heat inactivated after 120 min and then analyzed by ^31P NMR as described above.

[1] = role: substrate (PEP, 0.1-1 mM), MgCl2 2 mM, PnaD and PnaA coupled, pH 7.5, 30° C

SMILES: Nc1ncnc2c1ncn2[C@@H]1O[C@H](COP(=O)(O)OP(=O)(O)OP(=O)(O)O)[C@@H](O)[C@H]1O [ATP, reference compound]
- ATP requirement (PnaB; role: cofactor, ATP omitted): its omission abolished all activity
- ATP requirement (PnaC; role: cofactor, ATP omitted): its omission abolished all activity

SMILES: C[C@H](N)C(=O)O [Ala, Alanine]
- substrate preference (average ion intensity of dipeptides) (PnaC; role: substrate, with ATP, LC-HRMS ion intensity): average ion intensity nearly a magnitude larger than any other group

SMILES: C[C@H](N)C(=O)N[C@@H](C)C(=O)O [Ala-Ala] (H-Ala-Ala-OH)
- abundance of PnAla conjugate (PnaB and PnaC): greatest abundance

SMILES: CC[C@H](C)[C@H](NC(=O)[C@H](C)N)C(=O)O [Ala-Ile] (H-Ala-Ile-OH)
- conversion of dipeptide with PnAla into phosphonoalamide (PnaB): respective conversion into phosphonoalamides B, C, and D
- abundance of PnAla conjugate (PnaB and PnaC): greatest abundance

SMILES: CC(C)C[C@H](NC(=O)[C@H](C)N)C(=O)O [Ala-Leu] (H-Ala-Leu-OH)
- abundance of PnAla conjugate (PnaB and PnaC): greatest abundance

SMILES: CSCC[C@H](NC(=O)[C@H](C)N)C(=O)O [Ala-Met] (H-Ala-Met-OH)
- abundance of PnAla conjugate (PnaB and PnaC): greatest abundance

SMILES: CC(C)[C@H](NC(=O)[C@H](C)N)C(=O)O [Ala-Val] (H-Ala-Val-OH)
- dipeptide product of PnaC reaction (Ala + Val, ATP) (PnaC; role: product, with Ala, Val, ATP): product of the PnaC reaction
- abundance of PnAla conjugate (PnaB and PnaC): greatest abundance

SMILES: N[C@@H](CC(=O)O)C(=O)O [L-Asp, reference compound]
- amino donor dependence of PnAla formation (PnaA with PnaD; role: substrate (amino donor), with PEP, PLP): strictly dependent on L-Asp as the amino donor

SMILES: CSCC[C@H](N)C(=O)N[C@@H](Cc1c[nH]c2ccccc12)C(=O)O [Met-Trp] (H-Met-Trp-OH)
- product of Met + Trp reaction (PnaC; role: product, PnaC-only reaction, Met and Trp, ATP): detected as the sole product

SMILES: C=C(OP(=O)(O)O)C(=O)O [PEP, phosphoenolpyruvate]
- catalytic efficiency lower than that of PnaA directly provided with PnPy (fold) (PnaD and PnaA; role: substrate (PEP), compared with PnPy): 1,000 fold
- Km (PnaD and PnaA; [1]): 547 µM
- kcat (PnaD and PnaA; [1]): 0.084 s⁻¹

SMILES: Cc1ncc(COP(=O)(O)O)c(C=O)c1O [PLP, pyridoxal 5′-phosphate, reference compound]
- effect of PLP on PnAla formation (PnaA with PnaD; role: cofactor, without addition of PLP): enzyme activity was observed at significantly reduced amounts
- effect of PLP on PnPy formation (PnaA): significantly greater PnPy was observed when additional PLP was provided

SMILES: CSCC[C@H](NC(=O)[C@H](Cc1c[nH]c2ccccc12)NC(=O)[C@@H](N)CP(=O)(O)O)C(=O)O [PnAla-Trp-Met]
- product of Met + Trp reaction (PnaB and PnaC; role: product, two-enzyme system PnaBC, Met and Trp 3 mM each, ATP 5 mM): major species

SMILES: C[C@@H](O)[C@H](N)C(=O)O [Thr, Threonine]
- nucleophiles accepted upon activation of the carboxylate (PnaC; with ATP): acceptance of Trp as a nucleophile, but not Thr or Pro

SMILES: CC(C)[C@H](NC(=O)[C@@H](N)[C@@H](C)O)C(=O)O [Thr-Val] (H-Thr-Val-OH)
- conversion of dipeptide with PnAla into phosphonoalamide (PnaB): respective conversion into phosphonoalamides B, C, and D

SMILES: CC(C)[C@H](N)C(=O)N[C@H](C(=O)O)C(C)C [Val-Val] (H-Val-Val-OH)
- conversion of dipeptide with PnAla into phosphonoalamide (PnaB): respective conversion into phosphonoalamides B, C, and D

SMILES: C[C@H](O)[C@H](N)C(=O)O [allo-Thr, allothreonine]
- nucleophiles accepted upon activation of the carboxylate (PnaC; with ATP): both Thr and Pro as nucleophiles, to the exclusion of Trp

SMILES: N=C(N)NCCC[C@H](N)C(=O)O [arginine, Arginine]
- acceptance as carboxylate (PnaC; with ATP): all but arginine and cysteine were accepted as carboxylates

SMILES: N[C@@H](CS)C(=O)O [cysteine, Cysteine]
- acceptance as carboxylate (PnaC; with ATP): all but arginine and cysteine were accepted as carboxylates

Reference: patent US20260327260A1, “PHOSPHONOALANINE OLIGOPEPTIDES AND METHODS OF MAKING AND USE THEREOF” (priority 2023, published 2026)
